According to patent US8618289B2 (Ambit Biosciences Corporation, priority 2008, dated 2013):

Assays:
RAF kinases [1] = biological target: RAF kinases (Homo sapiens, UniProt P15056); settings: read-out: BRAF WT Kd; BRAF WT
Description: (§1) Competition binding assays used herein were developed, validated and performed as described in Fabian et al., Nature Biotechnology 2005, 23, 329-336. […] The liganded beads were blocked with excess biotin and washed with blocking buffer (SeaBlock (Pierce), 1% BSA, 0.05% Tween 20, 1 mM DTT) to remove unbound ligand and to reduce non-specific binding. […] Test compounds were prepared as 100× stocks in DMSO and rapidly diluted into the aqueous environment. DMSO was added to control assays lacking a test compound. Primary screen interactions were performed in polypropylene 384-well plates in a final volume of 34 μt, while Kd determinations were performed in polystyrene 96-well plates in a final volume of 135 pt. […] The kinase concentration in the eluates was measured by quantitative PCR. Each kinase was tested individually against each compound. Kds were determined using eleven serial threefold dilutions. A selectivity score, which is a quantitative measure of selectivity of a compound against a panel of enzymes, may be calculated for a compound by dividing the number of enzymes for which a compound meets a set criteria, (for example, a binding constant of 100 nM or less), by the total number of enzymes tested. […] (Note, for those compounds tested in a larger kinase panel, as indicated by an asterisk (*) next to the S35 score, the divisor is 321 (i.e. the larger panel contains 321 distinct kinases, excluding mutant variants.)).

RAF kinases [2] = biological target: RAF kinases (Homo sapiens, UniProt P04049); settings: read-out: RAF1 Kd; RAF1
Description: as §1

[3] = test system: MEK1 phosphorylation in the A375 human melanoma cell line; assay: cells; settings: A-375, read-out: pMEK IC50
Description: A375 cells (from American Type Culture Collection) were plated at 50,000 cells per well in DMEM (Mediatech) with 10% fetal bovine serum (Omega Scientific) into a 96 well plate and incubated overnight in a 37° C. incubator with 10% CO2. The cells were then washed with PBS and the medium replaced with 0.5% FBS for incubation overnight. […] The cells were incubated with compound or control for two hours at 37° C. The compound solution was aspirated off and the cells washed with cold PBS. […] The plate was centrifuged for 30 minutes to pellet out the cell debris. The cleared lysates were transferred to a 96-well Nunc plate and the ELISA protocol described by the manufacturer in Catalog #KHO0321 or KHO0291 was followed.

RAF kinases [4] = biological target: RAF kinases (Homo sapiens, UniProt P15056, V600E); assay: biochemical
RAF kinases (Homo sapiens, UniProt P15056, V600E), sequence (P15056 whole entry V600E): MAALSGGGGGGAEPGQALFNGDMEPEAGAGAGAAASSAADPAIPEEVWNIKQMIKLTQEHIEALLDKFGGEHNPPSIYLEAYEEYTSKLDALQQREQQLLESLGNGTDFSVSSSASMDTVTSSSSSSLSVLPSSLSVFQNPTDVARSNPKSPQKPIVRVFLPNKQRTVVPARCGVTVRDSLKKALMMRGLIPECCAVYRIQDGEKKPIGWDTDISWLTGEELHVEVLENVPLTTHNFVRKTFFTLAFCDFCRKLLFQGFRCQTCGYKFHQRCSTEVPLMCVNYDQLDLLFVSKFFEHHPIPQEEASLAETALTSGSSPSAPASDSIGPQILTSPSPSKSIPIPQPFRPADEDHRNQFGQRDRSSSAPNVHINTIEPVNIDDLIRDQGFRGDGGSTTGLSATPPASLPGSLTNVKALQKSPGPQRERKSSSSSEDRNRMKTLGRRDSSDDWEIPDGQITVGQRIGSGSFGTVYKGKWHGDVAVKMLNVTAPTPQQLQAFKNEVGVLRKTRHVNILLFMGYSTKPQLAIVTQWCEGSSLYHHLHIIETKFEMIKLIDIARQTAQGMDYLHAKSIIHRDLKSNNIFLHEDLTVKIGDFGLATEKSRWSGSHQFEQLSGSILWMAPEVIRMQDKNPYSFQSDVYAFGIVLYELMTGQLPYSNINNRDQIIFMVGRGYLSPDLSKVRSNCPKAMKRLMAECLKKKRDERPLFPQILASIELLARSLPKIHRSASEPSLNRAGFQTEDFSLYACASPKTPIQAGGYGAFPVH
Description: as §1

[5] = test system: 290 distinct kinases tested excluding mutant variants (321 in the larger panel); settings: no asterisk: panel of 290 distinct kinases
Description: as §1

Erk1/2 = settings: carrageenan-induced pleurisy rat model; Sawatzky et al.; cited from earlier work
[6] = test system: tumor growth or metastases; settings: preclinical studies; Sharma et al.; cited from earlier work

RAF kinases (Homo sapiens, UniProt P15056), sequence (P15056 whole entry): as the sequence (P15056 whole entry V600E) above, with E600V counted along it
RAF kinases (Homo sapiens, UniProt P04049), sequence (P04049 whole entry): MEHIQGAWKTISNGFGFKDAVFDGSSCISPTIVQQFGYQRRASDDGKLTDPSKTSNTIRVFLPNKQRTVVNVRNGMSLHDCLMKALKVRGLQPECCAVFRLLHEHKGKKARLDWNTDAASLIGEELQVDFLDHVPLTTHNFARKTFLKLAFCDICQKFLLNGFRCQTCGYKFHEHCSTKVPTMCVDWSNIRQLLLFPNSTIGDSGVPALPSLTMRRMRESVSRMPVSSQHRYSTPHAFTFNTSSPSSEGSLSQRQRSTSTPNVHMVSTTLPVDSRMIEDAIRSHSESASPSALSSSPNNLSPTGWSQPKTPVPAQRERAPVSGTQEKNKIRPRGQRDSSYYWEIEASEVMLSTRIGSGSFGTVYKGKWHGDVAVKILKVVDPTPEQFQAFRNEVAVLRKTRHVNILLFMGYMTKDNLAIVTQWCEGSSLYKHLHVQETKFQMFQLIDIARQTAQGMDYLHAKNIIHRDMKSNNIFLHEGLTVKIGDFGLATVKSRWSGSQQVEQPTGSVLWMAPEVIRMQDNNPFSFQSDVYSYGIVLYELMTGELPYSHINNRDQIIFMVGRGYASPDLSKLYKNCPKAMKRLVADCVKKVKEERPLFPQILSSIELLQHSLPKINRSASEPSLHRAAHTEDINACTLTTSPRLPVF

| SMILES | Kd (RAF kinases [1]) | Kd (RAF kinases [2]) | IC50 [3] | Kd (RAF kinases [4]) | S35 [5] | eosinophilic proinflammatory cytokine release (Erk1/2) | tumor growth or metastases in animals [6] |
| --- | --- | --- | --- | --- | --- | --- | --- |
| COc1cc2ncnc(Oc3cccc(NC(=O)Nc4cc(C(C)(C)C)nn4-c4ccccc4Cl)c3)c2cc1OC [Ex 340, 1-(3-tert-butyl-1-(2-chlorophenyl)-1H-pyrazol-5-yl)-3-(3-(6,7-dimethoxyquinazolin-4-yloxy)phenyl)urea] | > 1 µM | > 1 µM | < 0.25 µM | 0.25 to 0.5 µM | D (D > 0.40) |  |  |
| COc1cc2ncnc(Sc3cccc(NC(=O)Nc4cc(C(C)(C)C)nn4-c4ccccc4Cl)c3)c2cc1OC [Ex 341, 1-(3-tert-butyl-1-(2-chlorophenyl)-1H-pyrazol-5-yl)-3-(3-(6,7-dimethoxyquinazolin-4-ylthio)phenyl)urea] | > 1 µM | > 1 µM | < 0.25 µM | 0.25 to 0.5 µM | C (0.20 < C ≦ 0.40) |  |  |
| COc1cc2ncnc(Oc3cccc(NC(=O)Nc4cc(C(C)(C)C)nn4-c4ccccc4C)c3)c2cc1OC [Ex 342, 1-(3-tert-butyl-1-o-tolyl-1H-pyrazol-5-yl)-3-(3-(6,7-dimethoxyquinazolin-4-yloxy)phenyl)urea] | > 1 µM | > 1 µM | < 0.25 µM | 0.25 to 0.5 µM | D (D > 0.40) |  |  |
| COc1cc2ncnc(Sc3cccc(NC(=O)Nc4cc(C(C)(C)C)nn4-c4ccccc4C)c3)c2cc1OC [Ex 343, 1-(3-tert-butyl-1-o-tolyl-1H-pyrazol-5-yl)-3-(3-(6,7-dimethoxyquinazolin-4-ylthio)phenyl)urea] | > 1 µM | > 1 µM | < 0.25 µM | 0.25 to 0.5 µM | C (0.20 < C ≦ 0.40) |  |  |
| COc1cc2ncnc(Oc3cccc(NC(=O)Nc4cc(C(C)(C)C)nn4-c4ccccn4)c3)c2cc1OC [Ex 344, 1-(3-tert-Butyl-1-(pyridin-2-yl)-1H-pyrazol-5-yl)-3-(3-(6,7-dimethoxyquinazolin-4-yloxy)phenyl)urea] | > 1 µM | > 1 µM | 0.5 to 1 µM | 0.5 to 1 µM | C (0.20 < C ≦ 0.40) |  |  |
| COc1cc2ncnc(Sc3cccc(NC(=O)Nc4cc(C5(C(F)(F)F)CC5)nn4-c4ccc(C)cc4)c3)c2cc1OC [Ex 347, 1-(3-(6,7-dimethoxyquinazolin-4-ylthio)phenyl)-3-(1-p-tolyl-3-(1-(trifluoromethyl)cyclopropyl)-1H-pyrazol-5-yl)urea] | > 1 µM | > 1 µM | < 0.25 µM | 0.25 to 0.5 µM | D (D > 0.40) |  |  |
| COc1cccc(-c2cc(=O)c3ccccc3o2)c1N [PD98059] |  |  |  |  |  | inhibits eosinophilic proinflammatory cytokine release |  |
| CNC(=O)c1cc(Oc2ccc(NC(=O)Nc3ccc(Cl)c(C(F)(F)F)c3)cc2)ccn1 [Sorafenib] |  |  |  |  |  |  | decrease in tumor growth or metastases |
